Experimental data taken from patent publication US20190330224A1, “ACC INHIBITORS AND USES THEREOF” (Gilead Apollo, LLC, priority 2015, published 2019).
Converted amounts (≈) assume the structure as drawn.

Legend:
[1] = tested on: Fusarium virguliforme (Fv); test: Growth inhibition assay of fungal pathogens, Fv; format: cell-based; conditions: 48 hours, read-out: Concentration at 90% Inhibition, Fv
Protocol: (§1) Compounds of the present invention were evaluated in a growth inhibition assay to determine the ability to control the growth of fungal pathogens, such as Botrtyis cinerea (Bc). Collectotrichum graminicola (Cg), Diplodia maydis (Dm), Fusarium moniliforme (Fm), Fusarium virguliforme (Fv), Phytophthora capsici (Pc), Rhizoctonia solani (Rs), and Septoria tritici (St). Compounds to be tested were dissolved in DMSO at 2.5 mg/ml to produce compound stock solutions (“stocks”). Stocks were diluted with DMSO by a five-fold dilution in a 96-well stock plate, and two sets of final concentrations of 50, 10, and 2 ppm or 2, 0.4, and 0.08 ppm were obtained in vitro. A set of positive controls was also prepared, with various concentrations of Soraphen (2, 0.4, and 0.08 ppm), Metalaxyl (1.1, 0.22, and 0.04 ppm), and Metconazole (2, 0.4, and 0.08 ppm or 0.2, 0.04, and 0.008 ppm) after the five-fold dilutions. Negative controls on each plate included 2% DMSO, water, and a blank (media+2% DMSO). Fungal spores were isolated from previously sub-cultured plates of Botrtyis cinerea (Bc), Collectotrichum graminicola (Cg), Diplodia maydis (Dm), Fusarium moniliforme (Fm), Fusarium virguliforme (Fv), Phytophthora capsici (Pc), and Septoria tritici (St). The isolated spores were diluted to individual concentrations with a 17% V8 liquid media. For Rhizoctonia solani (Rs) and Pythium irregulare, 1.5 mm mycelial plugs were used in place of spores and ¼ Potato Dextrose Broth (PDB) was used for dilution. The spore concentrations and plug sizes were based on growth curves generated at 48 hours for each pathogen. In a second 96-well plate, the spores or mycelial plugs, media, diluted compound solutions, and controls were combined. Once the compound was added, a true final concentration of compound in each well was measured by an OD600 reading, which adjusted for any compound precipitation that might have occurred in the well. Plate readings were repeated at both 24 and 48 hours. The blank negative control was used as a background subtraction. Additional visual ratings were performed at both 24 and 48 hours for checking on precipitation and confirming efficacy. Visual and OD600 ratings of the compounds at 48 hours were compared to the 2% DMSO negative control, and the percent of pathogen growth inhibition was determined based on those values.

[2] = tested on: Phytophthora capsici (Pc); test: Growth inhibition assay of fungal pathogens, Pc; format: cell-based; conditions: 48 hours, read-out: Concentration at 90% Inhibition, Pc
Protocol: as §1

Human ACC2 = Human ACC2 (Homo sapiens, UniProt O00763); test: In vitro ACC2 inhibition assay (ADP-Glo), human ACC2; format: biochemical; conditions: 5 nM ACC2, 20 μM ATP, 20 μM acetyl-CoA
Sequence of Human ACC2 (O00763 whole entry): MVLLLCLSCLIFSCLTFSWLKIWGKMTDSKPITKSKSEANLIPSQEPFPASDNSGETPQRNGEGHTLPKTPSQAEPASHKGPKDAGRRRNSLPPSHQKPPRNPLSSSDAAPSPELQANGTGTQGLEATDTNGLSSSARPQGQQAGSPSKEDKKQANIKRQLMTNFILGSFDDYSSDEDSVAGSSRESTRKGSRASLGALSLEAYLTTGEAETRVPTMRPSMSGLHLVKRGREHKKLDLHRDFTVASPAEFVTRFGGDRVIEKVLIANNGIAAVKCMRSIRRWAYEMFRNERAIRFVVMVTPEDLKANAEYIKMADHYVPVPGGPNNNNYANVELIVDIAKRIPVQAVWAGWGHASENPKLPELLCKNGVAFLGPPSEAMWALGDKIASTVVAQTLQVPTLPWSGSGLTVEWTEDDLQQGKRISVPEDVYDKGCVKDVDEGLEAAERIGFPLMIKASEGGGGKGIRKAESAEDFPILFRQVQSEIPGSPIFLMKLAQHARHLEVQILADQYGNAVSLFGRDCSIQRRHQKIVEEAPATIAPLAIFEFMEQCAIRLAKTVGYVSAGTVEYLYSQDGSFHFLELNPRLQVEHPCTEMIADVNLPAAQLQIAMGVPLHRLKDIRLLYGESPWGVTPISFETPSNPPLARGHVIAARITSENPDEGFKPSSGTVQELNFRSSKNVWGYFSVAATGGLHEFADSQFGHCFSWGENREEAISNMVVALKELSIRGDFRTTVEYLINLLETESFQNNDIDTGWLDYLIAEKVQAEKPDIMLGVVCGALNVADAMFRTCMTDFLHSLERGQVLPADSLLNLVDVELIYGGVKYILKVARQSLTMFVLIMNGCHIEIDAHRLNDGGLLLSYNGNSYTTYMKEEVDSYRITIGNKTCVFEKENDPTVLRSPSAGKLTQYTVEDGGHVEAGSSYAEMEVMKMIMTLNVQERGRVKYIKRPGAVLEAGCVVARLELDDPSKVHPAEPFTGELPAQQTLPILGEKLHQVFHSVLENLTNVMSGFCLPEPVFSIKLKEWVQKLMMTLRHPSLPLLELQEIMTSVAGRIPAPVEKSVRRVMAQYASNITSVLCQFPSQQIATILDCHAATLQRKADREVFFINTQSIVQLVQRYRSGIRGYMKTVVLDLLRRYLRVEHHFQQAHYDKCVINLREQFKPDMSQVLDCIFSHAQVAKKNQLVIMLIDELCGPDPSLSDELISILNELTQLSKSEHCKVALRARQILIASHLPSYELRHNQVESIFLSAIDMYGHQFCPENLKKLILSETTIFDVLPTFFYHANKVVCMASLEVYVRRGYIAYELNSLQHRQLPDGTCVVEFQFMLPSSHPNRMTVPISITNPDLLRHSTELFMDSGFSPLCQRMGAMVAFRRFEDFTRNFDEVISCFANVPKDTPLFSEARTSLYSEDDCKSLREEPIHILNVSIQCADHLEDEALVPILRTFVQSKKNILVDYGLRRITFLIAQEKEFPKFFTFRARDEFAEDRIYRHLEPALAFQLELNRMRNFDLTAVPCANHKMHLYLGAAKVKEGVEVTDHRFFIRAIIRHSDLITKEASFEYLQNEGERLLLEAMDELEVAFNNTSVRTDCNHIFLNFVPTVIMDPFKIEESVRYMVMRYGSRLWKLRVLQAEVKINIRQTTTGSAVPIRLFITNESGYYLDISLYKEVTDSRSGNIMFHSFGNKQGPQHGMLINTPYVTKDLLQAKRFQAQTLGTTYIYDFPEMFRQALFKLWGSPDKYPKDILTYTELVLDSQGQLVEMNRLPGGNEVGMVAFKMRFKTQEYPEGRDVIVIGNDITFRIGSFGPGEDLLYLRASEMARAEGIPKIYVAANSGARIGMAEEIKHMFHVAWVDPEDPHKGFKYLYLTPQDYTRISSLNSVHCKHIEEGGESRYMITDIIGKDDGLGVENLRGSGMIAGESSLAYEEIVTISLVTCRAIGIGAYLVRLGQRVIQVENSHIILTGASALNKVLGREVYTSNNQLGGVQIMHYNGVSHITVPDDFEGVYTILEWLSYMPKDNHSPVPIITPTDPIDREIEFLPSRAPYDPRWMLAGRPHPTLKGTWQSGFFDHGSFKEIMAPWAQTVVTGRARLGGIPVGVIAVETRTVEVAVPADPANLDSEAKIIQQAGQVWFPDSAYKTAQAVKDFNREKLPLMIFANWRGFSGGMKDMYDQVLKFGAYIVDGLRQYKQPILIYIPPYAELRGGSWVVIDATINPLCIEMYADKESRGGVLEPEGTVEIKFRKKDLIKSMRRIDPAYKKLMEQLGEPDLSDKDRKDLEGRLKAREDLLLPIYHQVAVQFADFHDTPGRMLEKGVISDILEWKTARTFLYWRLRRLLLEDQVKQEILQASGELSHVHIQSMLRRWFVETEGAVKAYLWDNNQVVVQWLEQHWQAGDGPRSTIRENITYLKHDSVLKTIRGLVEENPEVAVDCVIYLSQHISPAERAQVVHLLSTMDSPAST

Fungal ACC2 = Fungal ACC2 (UniProt Q00955); conditions: read-out: Fungal ACC2 (IC50, in vitro ACC2 inhibition)
Sequence of Fungal ACC2 (Q00955 whole entry): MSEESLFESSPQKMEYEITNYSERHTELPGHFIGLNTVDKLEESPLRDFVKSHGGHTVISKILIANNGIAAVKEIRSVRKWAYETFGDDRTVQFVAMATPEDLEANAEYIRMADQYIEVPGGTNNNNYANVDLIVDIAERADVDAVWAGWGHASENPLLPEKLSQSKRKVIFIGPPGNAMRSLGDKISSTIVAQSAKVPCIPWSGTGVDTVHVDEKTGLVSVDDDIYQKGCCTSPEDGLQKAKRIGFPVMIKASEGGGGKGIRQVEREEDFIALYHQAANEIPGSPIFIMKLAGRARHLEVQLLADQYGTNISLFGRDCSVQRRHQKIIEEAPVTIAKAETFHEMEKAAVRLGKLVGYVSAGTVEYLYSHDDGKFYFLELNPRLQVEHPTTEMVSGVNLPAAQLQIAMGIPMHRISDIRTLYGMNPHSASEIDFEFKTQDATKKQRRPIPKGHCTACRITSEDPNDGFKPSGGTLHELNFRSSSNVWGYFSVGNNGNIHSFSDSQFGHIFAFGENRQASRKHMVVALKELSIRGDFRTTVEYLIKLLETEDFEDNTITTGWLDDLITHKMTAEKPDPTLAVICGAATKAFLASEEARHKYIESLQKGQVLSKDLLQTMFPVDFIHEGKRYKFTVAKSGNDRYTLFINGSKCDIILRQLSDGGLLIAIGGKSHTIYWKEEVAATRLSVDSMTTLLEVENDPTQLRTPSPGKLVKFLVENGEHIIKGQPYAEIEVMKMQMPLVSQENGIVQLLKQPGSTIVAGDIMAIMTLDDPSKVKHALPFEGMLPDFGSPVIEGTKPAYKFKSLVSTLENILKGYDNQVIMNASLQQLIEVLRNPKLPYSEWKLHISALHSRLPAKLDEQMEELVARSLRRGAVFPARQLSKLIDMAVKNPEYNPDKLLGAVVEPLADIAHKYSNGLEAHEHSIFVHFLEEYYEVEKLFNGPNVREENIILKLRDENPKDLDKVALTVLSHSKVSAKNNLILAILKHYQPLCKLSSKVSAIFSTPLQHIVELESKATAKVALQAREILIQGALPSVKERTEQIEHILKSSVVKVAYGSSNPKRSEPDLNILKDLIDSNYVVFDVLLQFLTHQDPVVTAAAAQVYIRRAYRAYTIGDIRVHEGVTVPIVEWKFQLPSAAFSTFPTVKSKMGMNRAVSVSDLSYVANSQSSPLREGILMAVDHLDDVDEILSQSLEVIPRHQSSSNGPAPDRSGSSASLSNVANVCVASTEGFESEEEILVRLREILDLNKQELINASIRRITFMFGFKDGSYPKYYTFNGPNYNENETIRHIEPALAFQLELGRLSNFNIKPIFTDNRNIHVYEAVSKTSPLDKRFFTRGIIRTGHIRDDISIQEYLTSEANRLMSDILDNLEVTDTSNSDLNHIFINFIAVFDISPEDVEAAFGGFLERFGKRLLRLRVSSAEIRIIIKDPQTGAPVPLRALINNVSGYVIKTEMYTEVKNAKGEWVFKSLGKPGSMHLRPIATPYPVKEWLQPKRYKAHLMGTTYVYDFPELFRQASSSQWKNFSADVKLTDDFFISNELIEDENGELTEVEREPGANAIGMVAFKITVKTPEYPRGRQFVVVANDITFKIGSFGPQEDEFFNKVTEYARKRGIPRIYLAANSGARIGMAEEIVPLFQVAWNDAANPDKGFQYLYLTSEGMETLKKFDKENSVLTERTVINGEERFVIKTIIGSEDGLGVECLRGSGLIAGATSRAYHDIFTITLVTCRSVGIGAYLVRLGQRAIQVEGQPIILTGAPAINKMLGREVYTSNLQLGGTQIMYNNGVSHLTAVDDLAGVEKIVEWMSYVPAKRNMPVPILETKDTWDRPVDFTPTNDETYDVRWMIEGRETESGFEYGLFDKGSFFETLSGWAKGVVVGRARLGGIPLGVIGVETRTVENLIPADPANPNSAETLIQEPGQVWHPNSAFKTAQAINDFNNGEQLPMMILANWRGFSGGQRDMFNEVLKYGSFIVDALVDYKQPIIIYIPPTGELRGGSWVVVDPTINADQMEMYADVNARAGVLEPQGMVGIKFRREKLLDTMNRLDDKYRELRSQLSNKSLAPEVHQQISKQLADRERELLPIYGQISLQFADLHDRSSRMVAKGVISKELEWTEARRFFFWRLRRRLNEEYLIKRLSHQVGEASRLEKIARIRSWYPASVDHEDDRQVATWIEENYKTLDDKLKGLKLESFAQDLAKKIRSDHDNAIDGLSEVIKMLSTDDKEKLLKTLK

C. albicans ATCC 90028 = test: Anti-Fungal Activity Assay (broth microtiter MIC), C. albicans; format: cell-based, Candida albicans; conditions: Candida albicans, ATCC90028, 48 h, 3 replicates; MIC recorded at 48 h; read-out: MIC C. albicans ATCC 90028
Procedure, shortened: (§2)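 Candida strains were grown from frozen stock on Sabouraud dextrose agar overnight at 35° C, then suspended directly in RPMI 1640+MOPS and quantified against standard curves. Broth microdilution MIC plates followed CLSI M27-A3; MICs were read visually against growth control at 48 h, with a 24 h read added for soraphen.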

Botrtyis cinerea (Bc) = test: Growth inhibition assay of fungal pathogens, Bc; format: cell-based; conditions: 48 hours; read-out: Concentration at 90% Inhibition, Bc
Protocol: as §1

[3] = tested on: Blumeria graminis f sp. hordei; test: Foliar protection test, barley powdery mildew control; format: in vivo, Blumeria graminis f sp. hordei on Hordeum vulgare cv. Perry; conditions: 168 h, compound concentration 50 ppm, foliar spray, evaluated 7 days after inoculation, read-out: Barley Powdery Mildew Control at 50 ppm
Protocol: Compounds of the present invention were evaluated in a foliar protection test to determine the ability to control barley powdery mildew. Plants (Hordeum vulgare cv. Perry) were grown for 6 days in 2-inch square pots containing Metromix 200 medium amended with fertilizer. For propagation, plants were maintained in a growth chamber at conditions of 20 to 21° C., 16 hour light cycle, 400 uM of light, 70% humidity, and with sub-irrigation as needed. After inoculation with the pathogen of Blumeria graminis f sp. hordei, plants were kept at conditions of 20 to 22° C., 70% relative humidity, and 200 uM of light to facilitate infection and disease development. At 6 days after planting (1st true leaf fully expanded), the test compounds were dissolved in a solution of 5% acetone and 0.005% Tween 80 surfactant. An atomizer was used for applying the solution onto both sides of the leaves until thoroughly wetted. The amount of the compound applied to the leaves was typically 200, 100, 50, 10, or 2 ppm, but it may vary. At 24 hours after treatment, the plants were moved to a cooler chamber and inoculated by shaking well-colonized, untreated stock plants above the treated plants. This allowed producing a settling cloud of spores and resulting in uniform infection. Efficacy was evaluated in 7 days later by examining leaves for colonization and growth of mildew. Table 5 lists the results of barley powdery mildew control at a compound concentration of 50 ppm or 10 ppm. Compounds having an activity designated as “AA” provided a compound having >85% control of barley powdery mildew; compounds having an activity designated as “A” provided a compound having from 70% to 84% control of barley powdery mildew; compounds having an activity designated as “B” provided a compound having from 50 to 69% control of barley powdery mildew; compounds having an activity designated as “C” provided a compound having from 25 to 49% control of barley powdery mildew; and compounds having an activity designated as “D” provided a compound having <25% control of barley powdery mildew.

Septoria tritici (St) = test: Growth inhibition assay of fungal pathogens, St; format: cell-based; conditions: Zymoseptoria tritici; 48 hours; read-out: Concentration at 90% Inhibition, St
Protocol: as §1

C. krusei ATCC 6258 = test: Anti-Fungal Activity Assay (broth microtiter MIC), C. krusei; format: cell-based, Candida krusei; conditions: Pichia kudriavzevii, ATCC6258, 48 h, 3 replicates; MIC recorded at 48 h; read-out: MIC C. krusei ATCC 6258
Procedure, shortened: as §2

[4] = tested on: Fusarium moniliforme (Fm); test: Growth inhibition assay of fungal pathogens, Fm; format: cell-based; conditions: Fusarium verticillioides; 48 hours; read-out: Concentration at 90% Inhibition, Fm
Protocol: as §1

Rhizoctonia solani (Rs) = test: Growth inhibition assay of fungal pathogens, Rs; format: cell-based; conditions: 48 hours, read-out: Concentration at 90% Inhibition, Rs
Protocol: as §1

Diplodia maydis (Dm) = test: Growth inhibition assay of fungal pathogens, Dm; format: cell-based; conditions: Stenocarpella maydis; 48 hours; read-out: Concentration at 90% Inhibition, Dm
Protocol: as §1

[5] = tested on: C. parapsilosis ATCC 22019; test: Anti-Fungal Activity Assay (broth microtiter MIC), C. parapsilosis; format: cell-based, Candida parapsilosis; conditions: Lodderomyces parapsilosis, ATCC22019, 48 h, 3 replicates; MIC recorded at 48 h; read-out: MIC C. parapsilosis ATCC 22019
Procedure, shortened: as §2

[6] = tested on: Collectotrichum graminicola (Cg); test: Growth inhibition assay of fungal pathogens, Cg; format: cell-based; conditions: 48 hours; read-out: Concentration at 90% Inhibition, Cg
Protocol: as §1

[7] = compound concentration 10 ppm, foliar spray, evaluated 7 days after inoculation

SMILES	IC90 [1] [µg/mL]	IC90 [2] [µg/mL]	IC50 (Human ACC2) [nM]	IC50 (Fungal ACC2) [nM]	MIC (C. albicans ATCC 90028) [µg/mL]	IC90 (Botrtyis cinerea (Bc)) [µg/mL]	pest or weed control at 50 ppm [3] [%]	IC90 (Septoria tritici (St)) [µg/mL]	MIC (C. krusei ATCC 6258) [µg/mL]	IC90 [4] [µg/mL]	IC90 (Rhizoctonia solani (Rs)) [µg/mL]	IC90 (Diplodia maydis (Dm)) [µg/mL]	MIC [5] [µg/mL]	IC90 [6] [µg/mL]	Barley Powdery Mildew Control at 10 ppm [7]
COCCO[C@@H](Cn1c(=O)n([C@H]2CCCN(C(C)C)C2=O)c(=O)c2c(C)c(-n3nccn3)sc21)c1cc(F)ccc1OC [Compound I-78, 1-((R)-2-(5-fluoro-2-methoxyphenyl)-2-(2-methoxy-ethoxy)ethyl)-3-((S)-1-isopropyl-2-oxopiperidin-3-yl)-5-methyl-6-(2H-1,2,3-triazol-2-yl)thieno[2,3-d]pyrimidine-2,4(1H,3H)-dione]	> 50	> 50	10 to 100	2 to 10	2.1 to 4 (≈ 3.42 to 6.51 µM)	2 (≈ 3.25 µM)	25 to 49	> 50	2.1 to 4 (≈ 3.42 to 6.51 µM)	2 (≈ 3.25 µM)	> 50	10 (≈ 16.3 µM)	2.1 to 4 (≈ 3.42 to 6.51 µM)	> 50	–
COCCO[C@@H](Cn1c(=O)n([C@@H]2CCCN(C(C)C)C2=O)c(=O)c2c(C)c(-n3nccn3)sc21)c1cc(F)ccc1OC [Compound I-79, 1-((R)-2-(5-fluoro-2-methoxyphenyl)-2-(2-methoxy-ethoxy)ethyl)-3-((R)-1-isopropyl-2-oxopiperidin-3-yl)-5-methyl-6-(2H-1,2,3-triazol-2-yl)thieno[2,3-d]pyrimidine-2,4(1H,3H)-dione]	> 50	> 50	100 to 1000	2 to 10	1.1 to 2 (≈ 1.79 to 3.25 µM)	> 50	50 to 69	> 50	1.1 to 2 (≈ 1.79 to 3.25 µM)	10 (≈ 16.3 µM)	> 50	10 (≈ 16.3 µM)	0.25 to 1 (≈ 0.407 to 1.63 µM)	> 50	–
COc1ccc(F)cc1[C@H](Cn1c(=O)n([C@H]2CCN(C)C2=O)c(=O)c2c(C)c(-n3nccn3)sc21)OCCC#N [Compound I-108, 3-((R)-1-(5-fluoro-2-methoxyphenyl)-2-(5-methyl-3-((S)-1-methyl-2-oxopyrrolidin-3-yl)-2,4-dioxo-6-(2H-1,2,3-triazol-2-yl)-3,4-dihydro-thieno[2,3-d]pyrimidin-1 (2H)-yl)ethoxy)propanenitrile]	2 (≈ 3.52 µM)	> 50	2 to 10	0.7 to 2	2.1 to 4 (≈ 3.7 to 7.05 µM)	0.4 (≈ 0.705 µM)	–	> 50	2.1 to 4 (≈ 3.7 to 7.05 µM)	0.08 (≈ 0.141 µM)	2 (≈ 3.52 µM)	10 (≈ 17.6 µM)	2.1 to 4 (≈ 3.7 to 7.05 µM)	10 (≈ 17.6 µM)	AA (provided a compound having >85% control of barley powdery mildew)
COc1ccc(F)cc1[C@H](Cn1c(=O)n([C@@H]2CCN(C)C2=O)c(=O)c2c(C)c(-n3nccn3)sc21)OCCC#N [Compound I-109, 3-((R)-1-(5-fluoro-2-methoxyphenyl)-2-(5-methyl-3-((R)-1-methyl-2-oxopyrrolidin-3-yl)-2,4-dioxo-6-(2H-1,2,3-triazol-2-yl)-3,4-dihydro-thieno[2,3-d]pyrimidin-1(2H)-yl)ethoxy)propanenitrile]	2 (≈ 3.52 µM)	> 50	2 to 10	0.7 to 2	2.1 to 4 (≈ 3.7 to 7.05 µM)	0.4 (≈ 0.705 µM)	–	> 50	2.1 to 4 (≈ 3.7 to 7.05 µM)	0.4 (≈ 0.705 µM)	2 (≈ 3.52 µM)	2 (≈ 3.52 µM)	2.1 to 4 (≈ 3.7 to 7.05 µM)	2 (≈ 3.52 µM)	A (provided a compound having from 70% to 84% control of barley powdery mildew)
COc1ccc(F)cc1[C@@H](O)Cn1c(=O)n([C@H]2CCN(C)C2=O)c(=O)c2c(C)c(-n3nccn3)sc21 [Compound I-164, 1-((R)-2-(5-fluoro-2-methoxyphenyl)-2-hydroxyethyl)-5-methyl-3-((S)-1-methyl-2-oxopyrrolidin-3-yl)-6-(2H-1,2,3-triazol-2-yl)thieno[2,3-d]pyrimidine-2,4(1H,3H)-dione]	2 (≈ 3.89 µM)	> 50	10 to 100	0.7 to 2	2.1 to 4 (≈ 4.08 to 7.77 µM)	2 (≈ 3.89 µM)	–	> 50	1.1 to 2 (≈ 2.14 to 3.89 µM)	0.4 (≈ 0.777 µM)	0.4 (≈ 0.777 µM)	> 50	2.1 to 4 (≈ 4.08 to 7.77 µM)	10 (≈ 19.4 µM)	B (provided a compound having from 50 to 69% control of barley powdery mildew)
COc1ccc(F)cc1[C@@H](O)Cn1c(=O)n([C@@H]2CCN(C)C2=O)c(=O)c2c(C)c(-n3nccn3)sc21 [Compound I-166, 1-((R)-2-(5-fluoro-2-methoxyphenyl)-2-hydroxyethyl)-5-methyl-3-((R)-1-methyl-2-oxopyrrolidin-3-yl)-6-(2H-1,2,3-triazol-2-yl)thieno[2,3-d]pyrimidine-2,4(1H,3H)-dione]	10 (≈ 19.4 µM)	> 50	2 to 10	0.7 to 2	–	2 (≈ 3.89 µM)	–	> 50	–	2 (≈ 3.89 µM)	2 (≈ 3.89 µM)	10 (≈ 19.4 µM)	–	10 (≈ 19.4 µM)	B (provided a compound having from 50 to 69% control of barley powdery mildew)
